Source: ChEMBL document CHEMBL1133375, “Exploring the chiral space within the active site of alpha-thrombin with a constrained mimic of D-Phe-Pro-Arg--design, synthesis, inhibitory activity, and X-ray structure of an enzyme-inhibitor complex” (Bioorg Med Chem Lett, 2000)
pIC50, pKi: −log10 of the molar value.

Legend:
Prothrombin [1] = target: T1, Prothrombin (Homo sapiens, UniProt P00734); assay: Concentration required for 50 percent inhibition of Prothrombin
Prothrombin [2] = target: T1, Prothrombin; assay: The compound was evaluated for binding affinity against Prothrombin

Structure (SMILES) | pIC50 (Prothrombin [1]) | pKi (Prothrombin [2])
NCc1ccc(CNC(=O)[C@@H]2CC[C@H]3[C@@H](OCc4ccccc4)CCC(=O)N23)cc1 | 4.90 | –
NCc1ccc(CNC(=O)[C@@H]2CC[C@H]3[C@@H](OCc4ccccc4)C[C@H](O)C(=O)N23)cc1 | 4.90 | –
C[C@]1(O)CC[C@@H]2CC[C@@H](C(=O)NCc3ccc(C(=N)N)cc3)N2C1=O | 6.60 | 6.90
O=C(NCC1CCNCC1)[C@@H]1CC[C@H]2[C@@H](OCc3ccccc3)CCC(=O)N12 | 4.90 | –
O=C(NCC1CCNCC1)[C@@H]1CC[C@H]2[C@@H](OCc3ccccc3)C[C@H](O)C(=O)N12 | 4.90 | –
N=C(N)c1ccc(CNC(=O)[C@@H]2CC[C@H]3CC[C@@](O)(Cc4ccccc4)C(=O)N32)cc1 | 7.70 | 8.05
CO[C@H]1C[C@@](O)(Cc2ccccc2)C(=O)N2[C@H](C(=O)NCc3ccc(C(=N)N)cc3)CC[C@@H]12 | 6.60 | 6.90
